Experimental data from patent US20220105072A1, “PHARMACEUTICAL COMPOSITION FOR PREVENTING OR TREATING DIABETES COMPLICATIONS COMPRISING NOVEL CHRYSIN DERIVATIVE COMPOUND AS ACTIVE INGREDIENT” (FRONTBIO INC., priority 2018, published 2022).
In brackets after ≈: the same amount, converted by molar mass. Like-named read-outs stand apart in the source and are kept apart here.

Columns and labels:
AGE formation = assay: Bovine serum albumin-methylglyoxal analysis, AGE formation (intermediate stage); assay type: biochemical
Experimental: (2) Bovine Serum Albumin—Methylglyoxal Analysis with Respect to AGE Formation (Intermediate Stage)
Bovine serum albumin (50 mg/mL) was incubated with methylglyoxal (100 mM) in a sodium phosphate buffer ([…], pH 7.4) at 37° C. for 24 hours in the presence of various concentrations of compounds (including a control group).
All reagents and samples were sterilized by filtration through […] membrane filters. Fluorescence intensity was measured at an excitation wavelength of 355 nm and an emission wavelength of 460 nm using a luminescence spectrometer LS50B (Perkin-Elmer Ltd., Buckinghamshire, England) (Wu & Yen, 2005). The test was conducted using aminoguanidine as a positive control group. The concentration of each test sample showing 50% inhibitory activity (IC50) was estimated from the least squares regression line of logarithmic concentrations plotted against the residual activity.

[1] = Solubility analysis in distilled water (HPLC); assay type: physicochemical; conditions: for solubility in water, times higher than Comparative Example 1: versus Comparative Example 1
Experimental: The chrysin and derivatives thereof were dissolved in distilled water and sonicated for 1 hour to maximize solubility and incubated at 37° C. After sonication, undissolved samples were removed by centrifugation (7000 g, 37° C., 5 min). The concentration of the sample was analyzed by HPLC by diluting the supernatant with methanol and filtering through a 0.45 μm disposable syringe filter (Advantec, Dublin, Calif., USA).

crosslinking of AGEs = assay: N-acetyl-glycyl-lysine-methyl ester D-ribose assay, crosslinking of AGEs (late stage); assay type: biochemical; conditions: for IC50: read-out: IC50 (AGE crosslinking, late stage)
Experimental: (3) N-acetyl-glycyl-lysine-methyl ester D-ribose assay on crosslinking of AGEs (late stage)
This test was used to evaluate the ability of the sample to inhibit crosslinking of GK peptides in the presence of D-ribose using the method described by Rahbar et al. (1999). The GK peptide (26.7 mg/mL) was incubated with D-ribose (200 mg/mL) under aseptic conditions in sodium phosphate buffer (0.5 M, pH 7.4) at 37° C. for 24 hours. The synthesized compound was added to the model system at a final concentration of 1 mM, excluding the aminoguanidine used at 10 mM and 50 mM. At the end of the incubation period, fluorescence intensity was measured at an excitation wavelength of 335 nm and an emission wavelength of 460 nm.

[2] = test system: formation of Amadori compound; assay: Hemoglobin-δ-gluconolactone assay, formation of Amadori compound (initial stage); assay type: biochemical, human; conditions: for initial inhibitory activity, times higher than the positive control: versus positive control group (aminoguanidine)
Experimental: (1) Analysis of Hemoglobin-δ-Gluconolactone with Respect to Formation of Amadori Compound (Initial Stage)
Evaluation of the initial stage of protein glycosylation was determined by δ-gluconolactone assay (Rahbar et al., 1999). Briefly, fresh human blood (50 mg/mL) was cultured with glucose (144 mg/mL) in a phosphate buffer (pH 7.4) containing 0.2 g/L of NaN3 under conditions of […] at 37° C. for 7 days.
In certain experiments, an indicated sample was added in a concentration range of 0.01 to 1 mM to a model system. Fluorescence of the sample was measured at maximum excitation and emission values of 355 nm and 460 nm, respectively. The test was conducted using aminoguanidine, a known inhibitor, as a positive control group.

RAW 264.7 cells = assay: NO production in LPS-induced RAW 264.7 cells (Griess reagent); assay type: cell-based; conditions: 24 hours, FIG. 1A
Experimental: The cytotoxicity of chrysin and derivatives thereof in RAW 264.7 cells was investigated using a MTS assay kit. Cells (1.6×10^4/well) were cultured in 96-well plates and treated with samples (10, 25 and 100 μM) for 12, 24, 48 and 72 hours. After culture, a MTS solution was incubated at 20 μL/well at 37° C. in a humidified 5% CO2 atmosphere for 90 minutes. The optical density at 490 nm was measured three times using an EL-800 universal microplate reader (Bio-Tek Instrument Inc., Winooski, USA). The cell viability of a untreated group was set at 100%. RAW 264.7 cells were seeded at a density of 4×10^5 cells/well on a 12-well plate and incubated with LPS (1 μg/mL) and samples of various concentrations for 24 hours. The concentration of […] (NO) in the medium was measured using a Griess reagent system described by the manufacturer. The production of NO was measured at 570 nm using an EL-800 Universal microplate reader (Bio-Tek Instrument Inc., Winooski, USA) and compared with the nitrite standard calibration curve.

Row | Structure (SMILES) | IC50 (AGE formation) | solubility at 1 h ([1]; distilled water, water, thermodynamic from solid, 37° C.) | IC50 (crosslinking of AGEs) | initial inhibitory activity, times higher than the positive control [2] | Solubility in water ([1]; 37° C.) | solubility in water, times higher than Comparative Example 1 [1] | activity against AGE formation, times higher than the positive control group (AGE formation; versus aminoguanidine) | inhibitory activity (late stage) (crosslinking of AGEs; at a concentration of 10.0 mg/mL) | inhibitory activity against formation of the Amadori compound, times higher than chrysin ([2]; versus chrysin) | effect on NO production (RAW 264.7 cells) | IC50 (crosslinking of AGEs; unit inferred)
1 | N=C(N)NN [Positive control group (Aminoguanidine), aminoguanidine, reference compound] | 137 µM | 30 µM (≈ 2.22 µg/mL) | 1900 µM |  |  |  |  |  |  |  | 
2 | CC(=O)Oc1cc(O)c2c(=O)cc(-c3ccccc3)oc2c1 [Synthesis Example 1, 5-hydroxy-4-oxo-2-phenyl-4H-chromen-7-yl acetate] | 21.6 µM |  |  | 4.66 times | 86 µM | 2.87 times |  |  |  |  | 
3 | O=c1cc(-c2ccccc2)oc2cc(O)cc(O)c12 [Comparative Example 1, 5,7-dihydroxy-2-phenyl-4H-chromen-4-one, reference compound] |  |  |  |  | 30 µM (≈ 7.63 µg/mL) |  | 5.48 times | did not exhibit inhibitory activity |  |  | 
4 | CC(=O)Oc1cc(OC(C)=O)c2c(=O)cc(-c3ccccc3)oc2c1 [Synthesis Example 2, 4-oxo-2-phenyl-4H-chromen-5,7-diyl diacetate] | 0.91 µM |  |  | 422.07 times | 265 µM | 8.83 times |  |  | 66.96 times | inhibited NO in a concentration-dependent manner | 22.3 µM
5 | COc1cc(OC)c2c(=O)cc(-c3ccccc3)oc2c1 [Synthesis Example 5, 5,7-dimethoxy-2-phenyl-4H-chromen-4-one] | 41.8 µM |  |  | 13.92 times |  |  |  |  |  |  | 39.9 µM
